These results are taken from ChEMBL document CHEMBL4325873, “Decreasing the CYP2D6 contribution to metabolism of a CK1ε inhibitor” (Bioorg Med Chem Lett, 2018).

A word on the IC50: it is the midpoint of a concentration-inhibition curve.

Data set [1] in a line: Drug metabolism in human liver microsomes. Format: ADME, Microsome. To be noted: read-out: Drug metabolism. Background: Microsomes from liver hold many membrane-bound enzymes, among them those of drug oxidation.
A further data set addresses CYP3A4 (Homo sapiens, UniProt P08684). Kind of data set: Drug metabolism in human liver microsomes assessed as CYP3A4-mediated drug metabolism in presence of ketoconazole. Format: ADME. To be noted: with ketoconazole, read-out: Drug metabolism.
Data set [2] has as its target Casein kinase I isoform epsilon (Homo sapiens, UniProt P49674). Kind of data set: Inhibition of human CK1 epsilon using casein as substrate after 2 hrs in presence of [33P]-ATP by scintillation counting analysis.
In data set [3] the target is T1, Cytochrome P450 2D6 (Homo sapiens, UniProt P10635). Description: Drug metabolism assessed as recombinant CYP2D6 (unknown origin)-mediated 3-(3-(pyridin-4-yl)-6-(4-(pyrrolidin-1-yl)piperidin-1-yl)imidazo[1,2-b]pyridazin-2-yl)phenol formation. Format: ADME. To be noted: recombinant enzyme.
T1 sequence (P10635 whole entry): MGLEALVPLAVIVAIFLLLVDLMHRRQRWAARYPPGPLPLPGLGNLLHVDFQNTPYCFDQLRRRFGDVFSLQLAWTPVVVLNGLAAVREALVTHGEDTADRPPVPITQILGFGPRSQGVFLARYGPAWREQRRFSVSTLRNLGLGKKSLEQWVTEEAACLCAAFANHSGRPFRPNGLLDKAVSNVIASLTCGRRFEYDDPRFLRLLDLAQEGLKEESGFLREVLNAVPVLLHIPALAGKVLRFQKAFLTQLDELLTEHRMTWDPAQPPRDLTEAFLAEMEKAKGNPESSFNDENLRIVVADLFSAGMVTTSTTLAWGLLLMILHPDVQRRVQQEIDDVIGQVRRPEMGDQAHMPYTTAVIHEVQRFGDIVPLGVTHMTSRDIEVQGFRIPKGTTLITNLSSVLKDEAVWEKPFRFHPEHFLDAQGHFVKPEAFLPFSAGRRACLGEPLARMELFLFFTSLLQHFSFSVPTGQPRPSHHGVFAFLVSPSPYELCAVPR
The target in data set [4] is T1, Cytochrome P450 2D6. Kind of data set: Drug metabolism assessed as recombinant CYP2D6 (unknown origin)-mediated 4-(3-(pyridin-4-yl)-6-(4-(pyrrolidin-1-yl)piperidin-1-yl)imidazo[1,2-b]pyridazin-2-yl)phenol formation. Format: ADME. The conditions noted are these: recombinant enzyme.
For data set [5], the target named is T1, Cytochrome P450 2D6. Description: Drug metabolism assessed as recombinant CYP2D6 (unknown origin)-mediated 3-(3-(pyridin-4-yl)-6-(4-(pyrrolidin-1-yl)-3,4-dihydropyridin-1(2H)-yl)imidazo[1,2-b]pyridazin-2-yl)phenol formation. Format: ADME. The conditions noted are these: recombinant enzyme.

Chain of Casein kinase I isoform epsilon (P49674 whole entry, canonical isoform): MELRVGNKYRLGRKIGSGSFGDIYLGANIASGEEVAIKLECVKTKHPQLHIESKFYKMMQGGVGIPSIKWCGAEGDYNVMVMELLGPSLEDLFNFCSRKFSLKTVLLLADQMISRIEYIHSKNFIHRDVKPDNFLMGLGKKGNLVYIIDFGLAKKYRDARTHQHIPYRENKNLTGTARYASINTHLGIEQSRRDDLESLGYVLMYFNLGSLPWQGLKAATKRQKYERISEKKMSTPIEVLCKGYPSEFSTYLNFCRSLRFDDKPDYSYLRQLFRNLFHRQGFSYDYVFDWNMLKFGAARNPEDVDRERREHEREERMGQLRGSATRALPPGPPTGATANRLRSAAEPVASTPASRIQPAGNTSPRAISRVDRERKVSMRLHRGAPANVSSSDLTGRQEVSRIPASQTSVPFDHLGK
Chain of CYP3A4 (P08684 whole entry, canonical isoform): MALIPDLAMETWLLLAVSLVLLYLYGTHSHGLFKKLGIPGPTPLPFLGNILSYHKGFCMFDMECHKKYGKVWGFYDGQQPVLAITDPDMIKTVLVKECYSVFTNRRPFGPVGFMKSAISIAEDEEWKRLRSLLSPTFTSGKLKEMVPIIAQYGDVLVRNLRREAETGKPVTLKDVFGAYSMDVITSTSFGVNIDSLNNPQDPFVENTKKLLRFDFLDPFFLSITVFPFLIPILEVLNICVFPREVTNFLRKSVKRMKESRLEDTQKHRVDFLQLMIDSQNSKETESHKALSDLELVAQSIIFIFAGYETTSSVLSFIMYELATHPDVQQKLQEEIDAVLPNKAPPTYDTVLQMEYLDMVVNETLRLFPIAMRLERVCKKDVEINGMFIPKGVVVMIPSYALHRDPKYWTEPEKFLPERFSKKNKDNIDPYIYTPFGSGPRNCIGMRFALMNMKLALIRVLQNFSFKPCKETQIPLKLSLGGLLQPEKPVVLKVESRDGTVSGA

In the case of `CC1(C)CN(c2ccc3nc(-c4cc(F)cc(F)c4)c(-c4ccncc4)n3n2)CCN1`, the metabolised in data set [1] came out at 25%; on CYP3A4, 15%. In addition, the IC50 in data set [2] came to 43 nM.
In the case of `c1ccc(-c2nc3ccc(N4CCC(N5CCCC5)CC4)nn3c2-c2ccncc2)cc1`, the figures for the metabolised (in data set [1]; on CYP3A4) were 38.5% and 24.5%, respectively. For the same compound, the Drug metabolism result on Cytochrome P450 2D6 [3], at Cytochrome P450 2D6 [4] and on Cytochrome P450 2D6 [5] was “Metabolite_Detected” in each case. Further, the IC50 in data set [2] was 26 nM.
For `Fc1ccc(-c2nc3ccc(N4CCC(N5CCCC5)CC4)nn3c2-c2ccncc2)cc1`, the metabolised was found to be 20% in data set [1] and 16% at CYP3A4. The IC50 in data set [2] was found to be 1 nM.
Regarding `C[C@H]1CN(c2ccc3nc(-c4ccc(F)cc4)c(-c4ccncc4)n3n2)CCN1`, the metabolised in data set [1] came out at 66%; at CYP3A4 it was 46%. In addition, the IC50 in data set [2] was 14.2 nM.
For `CC1(C)CN(c2ccc3nc(-c4ccccc4)c(-c4ccncc4)n3n2)CCN1` the same measures were 57%, 15% and 4.6 nM.
The corresponding values for `C[C@H]1CN(c2ccc3nc(-c4ccccc4)c(-c4ccncc4)n3n2)CCN1` are 56%, 30% and 13.7 nM.
The corresponding values for `c1ccc(-c2nc3ccc(N4CC5CC4CN5)nn3c2-c2ccncc2)cc1` (stereo not drawn) are 18%, 1% and 70 nM.
On to `Fc1ccc(-c2nc3ccc(N4CC5CC4CN5)nn3c2-c2ccncc2)cc1` (stereo not drawn), for which the metabolised turned out to be 18% in data set [1] and 0% at CYP3A4. Also, the IC50 in data set [2] is 15.7 nM.
In the case of `Cc1cc(C)cc(-c2nc3ccc(N4CCNC(C)(C)C4)nn3c2-c2ccncc2)c1`, the values for the metabolised (in data set [1]; on CYP3A4) were 13% and 5%, respectively. In addition, the concentration for half-maximal inhibition (IC50) in data set [2] was found to be 8.6 nM.
Regarding `CC1(C)CN(c2ccc3nc(-c4ccc(F)cc4)c(-c4ccncc4)n3n2)CCN1`, the values for the metabolised (in data set [1]; at CYP3A4) were 52% and 27%, respectively. Also, the concentration for half-maximal inhibition (IC50) in data set [2] worked out at 14.6 nM.
